US6204026A, “Detection of M. tuberculosis complex via reverse transcriptase SDA” (priority 1997, dated 2001)

Tested on: M. tuberculosis
Format: cell-based, Mycobacterium tuberculosis

| SMILES | time of exposure within which changes in α-antigen mRNA were detected [h] | decline in detectable α-antigen mRNA, compared with INH-treated cultures |
| --- | --- | --- |
| NNC(=O)c1ccncc1 [INH, Isoniazid] | ≤ 24 |  |
| CO[C@H]1/C=C/O[C@@]2(C)Oc3c(C)c(O)c4c(O)c(c(/C=N/N5CCN(C)CC5)c(O)c4c3C2=O)NC(=O)/C(C)=C\C=C\[C@H](C)[C@H](O)[C@@H](C)[C@@H](O)[C@@H](C)[C@H](OC(C)=O)[C@@H]1C [RIF, rifampin] | ≤ 24 | more rapid |
